These results are taken from patent US20110251379A1, “COMPOUNDS USEFUL FOR TREATING NEURODEGENERATIVE DISORDERS” (Satori Pharmaceuticals, Inc., priority 2010, published 2011).

Format in all cases: cell-based
One assay concerns Aβ-40. Briefly: MSD Human (6E10) Ab 3-PLEX elisa, conditioned media of 2B7 cells: Aβ-40. Conditions: for IC50: Aβ-40 (superscript b). In short, it runs like this: (§1)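 Confluent 2B7 cells were treated with compound serial dilutions (1% DMSO final) for 5 hours at 37° C. Conditioned media, diluted 1:1 in blocking buffer, was incubated with detection antibody overnight at 4 degrees C or 2 hours at room temp.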

The next assay relates to Aβ-42. Briefly: MSD Human (6E10) Ab 3-PLEX elisa, conditioned media of 2B7 cells: Aβ-42. Conditions: Homo sapiens, Aβ-42 (superscript c). In short, it runs like this:
as §1

A further assay has as its system Aβ-38. Briefly: MSD Human (6E10) Ab 3-PLEX elisa, conditioned media of 2B7 cells: Aβ-38. The settings on record: Homo sapiens, Aβ-38 (superscript a). In short, it runs like this: as §1
Setting [1] is: Homo sapiens, read-out: 50% reduction value.
Setting [2] is: Homo sapiens, read-out: IC50 range.

The structures appear in SMILES notation. Read-outs that look alike come from different tables or passages of the source. A value given as a limit tells only on which side of the number the result lay.

For `CCO[C@@H](C1C[C@@H](C)[C@H]2C(O1)[C@H](O)[C@@]1(C)C3CC[C@H]4C(C)(C)C(OC(N)=O)CC[C@@]45C[C@@]35CC[C@]21C)C(C)(C)O` (some centres unmarked), the IC50 with Aβ-40 (setting [1]) is 1000 to 10000 nM; in the assay on Aβ-42 (read-out: 50% reduction value) it was below 1000 nM; in the assay on Aβ-42 (read-out: IC50 range), below 1000 nM; with Aβ-38 (read-out: 50% reduction value), below 1000 nM.

What is called inhibition is the change of the read-out against control, counted positive when it falls. Turning to `CCO[C@@H](C1C[C@@H](C)[C@H]2C(O1)[C@H](O)[C@@]1(C)C3CC[C@H]4C(C)(C)C(OC(=O)NC)CC[C@@]45C[C@@]35CC[C@]21C)C(C)(C)O` (some centres unmarked), the inhibition at 20 µM in the assay on Aβ-40 (Homo sapiens, Aβ-40, 20 μM) was above 75%. Besides, the IC50 in the assay with Aβ-42 (read-out: 50% reduction value) and with Aβ-38 (read-out: 50% reduction value) was below 1000 nM each time.

Take `C=C(C)CO[C@@H](C1C[C@@H](C)[C@H]2C(O1)[C@H](O)[C@@]1(C)C3CC[C@H]4C(C)(C)C(OC(=O)NC5CNC5)CC[C@@]45C[C@@]35CC[C@]21C)C(C)(C)O` (some centres unmarked): the IC50 with Aβ-40 (setting [1]) is 1000 to 10000 nM; in the assay on Aβ-40 (setting [2]), above 10000 nM; in the assay with Aβ-42 (read-out: 50% reduction value), below 1000 nM; with Aβ-42 (read-out: IC50 range) it was below 1000 nM; in the assay with Aβ-38 (read-out: 50% reduction value), below 1000 nM.

For `CC(C)CO[C@@H](C1C[C@@H](C)[C@H]2C(O1)[C@H](O)[C@@]1(C)C3CC[C@H]4C(C)(C)C(OC(=O)NC5CNC5)CC[C@@]45C[C@@]35CC[C@]21C)C(C)(C)O` (some centres unmarked), the IC50 with Aβ-40 (setting [1]) was 1000 to 10000 nM; in the assay on Aβ-42 (read-out: 50% reduction value), below 1000 nM; in the assay with Aβ-42 (read-out: IC50 range), below 1000 nM; in the assay on Aβ-38 (read-out: 50% reduction value), 1000 to 10000 nM.

Take `CC(C)CO[C@@H](C1C[C@@H](C)[C@H]2C(O1)[C@H](O)[C@@]1(C)C3CC[C@H]4C(C)(C)C(OC(=O)NC5CN(C=O)C5)CC[C@@]45C[C@@]35CC[C@]21C)C(C)(C)O` (some centres unmarked): the IC50 is 1000 to 10000 nM with Aβ-40 (setting [1]); 1000 to 10000 nM in the assay with Aβ-40 (setting [2]); below 1000 nM in the assay with Aβ-42 (read-out: 50% reduction value); 1000 to 10000 nM in the assay with Aβ-42 (read-out: IC50 range); 1000 to 10000 nM with Aβ-38 (read-out: 50% reduction value).

In the case of `CCO[C@@H](C1C[C@@H](C)[C@H]2C(O1)[C@H](O)[C@@]1(C)C3CC[C@H]4C(C)(C)C(OC(=O)N5CC[C@H](C(=O)O)C5)CC[C@@]45C[C@@]35CC[C@]21C)C(C)(C)O` (some centres unmarked), the IC50 in the assay on Aβ-40 (setting [1]) is above 10000 nM; in the assay on Aβ-42 (read-out: 50% reduction value) it was below 1000 nM; with Aβ-42 (read-out: IC50 range) it was below 1000 nM; in the assay on Aβ-38 (read-out: 50% reduction value) it was 1000 to 10000 nM.

As for `CCO[C@@H](C1C[C@@H](C)[C@H]2C(O1)[C@H](O)[C@@]1(C)C3CC[C@H]4C(C)(C)C(OC(=O)N5CC[C@@H](C(=O)O)C5)CC[C@@]45C[C@@]35CC[C@]21C)C(C)(C)O` (some centres unmarked), the IC50 was above 10000 nM in the assay on Aβ-40 (setting [1]), below 1000 nM in the assay on Aβ-42 (read-out: 50% reduction value), below 1000 nM in the assay with Aβ-42 (read-out: IC50 range) and 1000 to 10000 nM with Aβ-38 (read-out: 50% reduction value).

For `CCO[C@@H](C1C[C@@H](C)[C@H]2C(O1)[C@H](O)[C@@]1(C)C3CC[C@H]4C(C)(C)C(O[C@H]5CN(CCC(=O)O)CCO5)CC[C@@]45C[C@@]35CC[C@]21C)C(C)(C)O` (some centres unmarked), the IC50 is 1000 to 10000 nM in the assay with Aβ-40 (setting [1]), below 1000 nM in the assay on Aβ-42 (read-out: 50% reduction value), below 1000 nM with Aβ-42 (read-out: IC50 range) and below 1000 nM in the assay with Aβ-38 (read-out: 50% reduction value).

Regarding `CCO[C@@H](C1C[C@@H](C)[C@H]2C(O1)[C@H](O)[C@@]1(C)C3CC[C@H]4C(C)(C)C(O[C@H]5CN(CCCC(=O)O)CCO5)CC[C@@]45C[C@@]35CC[C@]21C)C(C)(C)O` (some centres unmarked), the IC50 with Aβ-40 (setting [1]) was 1000 to 10000 nM; with Aβ-42 (read-out: 50% reduction value), below 1000 nM; with Aβ-42 (read-out: IC50 range), below 1000 nM; in the assay with Aβ-38 (read-out: 50% reduction value), 1000 to 10000 nM; in the assay on Aβ-38 (read-out: IC50 range), 1000 to 10000 nM.

For the compound `CCO[C@@H](C1C[C@@H](C)[C@H]2C(O1)[C@H](O)[C@@]1(C)C3CC[C@H]4C(C)(C)C(O[C@H]5CN([C@@H](C)C(=O)O)CCO5)CC[C@@]45C[C@@]35CC[C@]21C)C(C)(C)O` (some centres unmarked), the IC50 is above 10000 nM with Aβ-40 (setting [1]), below 1000 nM in the assay with Aβ-42 (read-out: 50% reduction value), below 1000 nM in the assay on Aβ-42 (read-out: IC50 range) and below 1000 nM in the assay on Aβ-38 (read-out: 50% reduction value).

On to `CCO[C@@H]([C@H]1C[C@@H](C)[C@H]2[C@H](O1)[C@H](O)[C@@]1(C)C3CC[C@H]4C(C)(C)C(OC(=O)N5CCC5)CC[C@@]45C[C@@]35CC[C@]21C)C(C)(C)O` (some centres unmarked), for which, in the assay with Aβ-40 (Aβ-40, 20 μM), the “% Inh. (range)” value is on record as “E/F^b (20 μM)”. Also, the IC50 was below 1000 nM in the assay with Aβ-42 (read-out: 50% reduction value), below 1000 nM in the assay with Aβ-42 (read-out: IC50 range), below 1000 nM in the assay with Aβ-38 (read-out: 50% reduction value) and 1000 to 10000 nM in the assay with Aβ-38 (read-out: IC50 range).

As for `CCO[C@@H]([C@H]1C[C@@H](C)[C@H]2[C@H](O1)[C@H](O)[C@@]1(C)C3CC[C@H]4C(C)(C)C(OC(=O)NC5COC5)CC[C@@]45C[C@@]35CC[C@]21C)C(C)(C)O` (some centres unmarked), the IC50 in the assay with Aβ-40 (setting [1]) is 1000 to 10000 nM; in the assay with Aβ-42 (read-out: 50% reduction value), below 1000 nM; with Aβ-42 (read-out: IC50 range), below 1000 nM; in the assay on Aβ-38 (read-out: 50% reduction value), below 1000 nM.

For the compound `CCO[C@@H]([C@H]1C[C@@H](C)[C@H]2[C@H](O1)[C@H](O)[C@@]1(C)C3CC[C@H]4C(C)(C)C(OC(=O)NC5CNC5)CC[C@@]45C[C@@]35CC[C@]21C)C(C)(C)O` (some centres unmarked), the IC50 in the assay on Aβ-40 (setting [1]) is 1000 to 10000 nM; in the assay on Aβ-40 (setting [2]), above 10000 nM; in the assay on Aβ-42 (read-out: 50% reduction value), below 1000 nM; in the assay with Aβ-42 (read-out: IC50 range) it was below 1000 nM; in the assay with Aβ-38 (read-out: 50% reduction value) it was below 1000 nM.
